Reference: patent publication US8710060B2, “Piperazinyl methyl phenyl cyclohexane compound” (Daiichi Sankyo Company, Limited, priority 2010, dated 2014)
Where a name gives a salt, the structure may show the parent alone.

Test system: longitudinal muscle strip from the duodenal smooth muscle layer
Test: Measurement of intestinal contractile activity (Magnus organ bath, cumulative dosing)
Settings: Oryctolagus cuniculus; male NZW rabbit duodenal longitudinal muscle strip, Krebs solution 31° C., test compound 0.01 nM to 10 μM cumulative dosing; contraction by carbachol 10 μM taken as 100%
Experimental: Bioactivity Test (Measurement of Intestinal Contractile Activity)
A male NZW rabbit (body weight: 2.5 to 3.0 kg, KITAYAMA LABES CO., LTD., NAGANO) was used.
Carbachol (carbamylcholine chloride, Sigma-Aldrich Japan K.K.) was purchased and used. Each test compound was dissolved in dimethyl sulfoxide (DMSO, Sigma-Aldrich Japan K.K.), and then suspended in physiological saline. Carbachol was dissolved in physiological saline.
(3) Experimental Method and Results
Pentobarbital sodium (Kyoritsu Seiyaku Corporation, Osaka) was administered to the rabbit through the auricular vein, and the rabbit was euthanized by exsanguination under anesthesia. Thereafter, the duodenum was excised from the rabbit and rapidly rinsed with Krebs solution (NaCl 120.0 mM, KCl 4.7 mM, CaCl2 2.4 mM, KH2PO4 1.0 mM, MgSO4 1.2 mM, NaHCO3 24.5 mM, and glucose 5.6 mM, pH 7.4). Then, a longitudinal muscle strip (length: 10 mm, width: 3 mm) was prepared from the duodenal smooth muscle layer obtained by stripping off the mucosal layer from the duodenum. The prepared strip was mounted in an organ bath and contained in 20 mL of Krebs solution gassed with 95% O2 and 5% CO2 at 31° C. so as to suppress excessive locomotion, and a tension of 1 g was applied thereto. The strip was left to stand for 1 hour or more while replacing the Krebs solution every 15 minutes until the strip was equilibrated. Before starting the experiment, stimulation with carbachol at 10 μM was repeatedly applied until a reproducible contraction was obtained. The contractile activity was measured with an FD pickup (TB-611T, Nihon Kohden Corporation, Tokyo) and recorded on a pen recorder (RECTI HORIZ-8K, Sanei, Tokyo). Each test compound was added to the Krebs solution at 0.01 nM to 10 μM, and the strip was contracted by cumulative dosing. The contractile activity at each concentration was determined when the contractile activity at the time of stimulation with carbachol at 10 μM was taken as 100%, and the EC50 value of each test compound was determined. The EC50 values are shown below.

Row | Structure (SMILES) | EC50
1 | Cc1cc(N(C)C(=O)[C@H]2CC[C@H](Nc3cccc(COCC(C)(C)O)c3)CC2)ccc1CN1CCN[C@@H](C)C1 [Example 58, Trans-4-({3-[(2-hydroxy-2-methylpropoxy)methyl]phenyl}amino)-N-methyl-N-(3-methyl-4-{[(3S)-3-methylpiperazin-1-yl]methyl}phenyl)cyclohexanecarboxamide hydrochloride] | 0.9 nM
2 | Cc1cc(N(C)C(=O)[C@H]2CC[C@H](Oc3cccc(CO)c3)CC2)ccc1CN1CCN[C@@H](C)C1 [Example 5, Trans-4-[3-(hydroxymethyl)phenoxy]-N-methyl-N-(3-methyl-4-{[(3S)-3-methylpiperazin-1-yl]methyl}phenyl)cyclohexanecarboxamide hydrochloride] | 7.3 nM
3 | Cc1cc(N(C)C(=O)[C@H]2CC[C@H](Oc3cccc(CC(=O)N(C)C(C)C)c3)CC2)ccc1CN1CCN[C@@H](C)C1 [Example 34, Trans-4-(3-{2-[isopropyl(methyl)amino]-2-oxoethyl}phenoxy)-N-methyl-N-(3-methyl-4-{[(3S)-3-methylpiperazin-1-yl]methyl}phenyl)cyclohexanecarboxamide] | 2.1 nM
4 | Cc1cc(N(C)C(=O)[C@H]2CC[C@H](Oc3cccc(CS(C)(=O)=O)c3)CC2)ccc1CN1CCN[C@@H](C)C1 [Example 42, hydrochloride] | 4.8 nM
5 | C[C@H]1CN(Cc2ccc(N(C)C(=O)[C@H]3CC[C@H](Oc4ccc(F)cc4)CC3)cc2)CCN1 [Example 1, Trans-4-(4-fluorophenoxy)-N-methyl-N-(4-{[(3S)-3-methylpiperazin-1-yl]methyl}phenyl)cyclohexanecarboxamide] | 28 nM
6 | COCCOCc1cccc(O[C@H]2CC[C@H](C(=O)N(C)c3ccc(CN4CCN[C@@H](C)C4)c(C)c3)CC2)c1 [Example 53, Trans-4-{3-[(2-methoxyethoxy)methyl]phenoxy}-N-methyl-N-(3-methyl-4-{[(3S)-3-methylpiperazin-1-yl]methyl}phenyl)cyclohexanecarboxamide hydrochloride] | 6.8 nM
7 | Cc1cc(N(C)C(=O)[C@H]2CC[C@H](Oc3cccc(COC[C@@H](C)O)c3)CC2)ccc1CN1CCN[C@@H](C)C1 [Example 56, Trans-4-[3-({[(2R)-2-hydroxypropyl]oxy}methyl)phenoxy]-N-methyl-N-(3-methyl-4-{[(3S)-3-methylpiperazin-1-yl]methyl}phenyl)cyclohexanecarboxamide hydrochloride] | 1.2 nM
8 | Cc1cc(N(C)C(=O)[C@H]2CC[C@H](Oc3ccnc(C#N)c3)CC2)ccc1CN1CCN[C@@H](C)C1 [Example 22, Trans-4-[(2-cyanopyridin-4-yl)oxy]-N-methyl-N-(3-methyl-4-{[(3S)-3-methylpiperazin-1-yl]methyl}phenyl)cyclohexanecarboxamide hydrochloride] | 4.8 nM
9 | Cc1cc(N(C)C(=O)[C@H]2CC[C@H](Oc3ccc(F)cn3)CC2)ccc1CN1CCN[C@@H](C)C1 [Example 4, Trans-4-[(5-fluoropyridin-2-yl)oxy]-N-methyl-N-(3-methyl-4-{[(3S)-3-methylpiperazin-1-yl]methyl}phenyl)cyclohexanecarboxamide hydrochloride] | 2.5 nM
10 | CCOC(=O)Cc1cccc(O[C@H]2CC[C@H](C(=O)N(C)c3ccc(CN4CCN[C@@H](C)C4)c(C)c3)CC2)c1 [Example 16, Ethyl [3-({trans-4-[methyl(3-methyl-4-{[(3S)-3-methylpiperazin-1-yl]methyl}phenyl)carbamoyl]cyclohexyl}oxy)phenyl]acetate hydrochloride] | 2.4 nM
11 | Cc1cc(N(C)C(=O)[C@H]2CC[C@H](Oc3cccc(CC(=O)NC(C)C)c3)CC2)ccc1CN1CCN[C@@H](C)C1 [Example 30, Trans-4-{3-[2-(isopropylamino)-2-oxoethyl]phenoxy}-N-methyl-N-(3-methyl-4-{[(3S)-3-methylpiperazin-1-yl]methyl}phenyl)cyclohexanecarboxamide hydrochloride] | 3 nM
12 | Cc1cc(N(C)C(=O)[C@H]2CC[C@H](Oc3cccc(CC(=O)NC(C)(C)C)c3)CC2)ccc1CN1CCN[C@@H](C)C1 [Example 33, Trans-4-{3-[2-(tert-butylamino)-2-oxoethyl]phenoxy}-N-methyl-N-(3-methyl-4-{[(3S)-3-methylpiperazin-1-yl]methyl}phenyl)cyclohexanecarboxamide] | 1.5 nM
13 | Cc1cc(N(C)C(=O)[C@H]2CC[C@H](Oc3cccc(COCC(C)(C)O)c3)CC2)ccc1CN1CCN[C@@H](C)C1 [Example 57, Trans-4-{3-[(2-hydroxy-2-methylpropoxy)methyl]phenoxy}-N-methyl-N-(3-methyl-4-{[(3S)-3-methylpiperazin-1-yl]methyl}phenyl)cyclohexanecarboxamide hydrochloride] | 11.3 nM
